What was measured:
[1] = Excretion and metabolite identification in bile duct cannulated (BDC) rats; assay type: in vivo, Sprague-Dawley rats
Description: In the urine and feces excretion experiment, six rats (3 females and 3 males) were administered a single oral dose of [^14C]7–16 at 3 mg/100 µCi/kg. Urine, feces and cage washing/cleaning solution samples were collected from 0 to 168 h following drug administration at the following time intervals: 0–8, 8–24 h (0–24 h for feces), 24–48, 48–72, 72–96, 96–120, 120–144, and 144–168 h. In the biliary excretion experiment, 8 rats using a bile duct cannula (BDC) (4 females and 4 males) were administered a single oral dose of [^14C]7–16 at 3 mg/100 µCi/kg. Bile, urine, feces, and cage washing solution were collected from before and 0–72 h after oral administration at the following time intervals: 0–4, 4–8 (urine 0–8), 8–24 (feces 0–24), 24–48, and 48–72 h. All samples were collected and refrigerated at −20 °C until determination of the radioactive concentrations by liquid scintillation counter (Perkin Elmer Corporation, Waltham, MA, USA). Urine, feces, and bile samples at each time period were mixed by equal percentages of either volume or weight. After the mixed samples were treated, the radio-profiles and metabolite identification in the bile, urine, and feces samples were carried out by LC-RAM and UPLC-Q Exactive HRMS, and the TRA% of each metabolite in plasma and the percentage of dose (dose%) of each compound in urine, feces, and bile samples were calculated.

[2] = Metabolite identification in human liver microsomes; assay type: in vitro ADME; conditions: 7–16 10 µM, liver microsomes 1 mg/mL, NADPH, 37 °C, 60 min
Description: In accordance with our previous methods, 7–16 (10 µM) was incubated with mouse, rat, dog, monkey, and human liver microsome proteins (1 mg/mL) in 100 mM sodium phosphate buffer (pH 7.4) containing 10 mM magnesium chloride and 2 mM NADPH at 37 °C for 60 min. All samples were prepared in duplicates. The reactions were terminated by adding three times the volume of ice-cold acetonitrile (600 µL) and stored at −20 °C until analysis. Control samples without NADPH and 0-time point samples were included. As a positive control, testosterone (10 µM), which was metabolized to produce the hydroxylation metabolite, was used as a substrate to confirm the activity of the incubation system.
After pre-treatments, the samples were analyzed by an Acquity UPLC system coupled with a diode array detector (Waters Corporation, Milford, MA, USA) and Q Exactive HRMS (Thermo Electron Corporation, Waltham, MA, USA) (UPLC–UV-Q Exactive HRMS). Samples were separated on an Agilent XDB C18 column (150 × 2.1 mm i.d. 3.5 μm, Agilent Corporation, Santa Clara, CA, USA) at 40 °C by gradient elution with water and acetonitrile containing 0.1% formic acid. The flow rate was 0.40 mL/min. The ultraviolet (UV) detection wavelength was 286 nm. Q Exactive HRMS were operated at positive ion mode (3.5 kV) using a heating electrospray ionization source. Mass calibration was required to be performed before conducting experiments so as to achieve the best mass accuracy and mass calibration should be performed every five days. The metabolites were detected by full MS/dd-MS^2 analysis from m/z 100 to m/z 1000. The resolution of the first-class scan and second-class scan was 70,000 and 17,500, respectively. Thermo Compound Discover software was used to identify expected and unknown metabolites, and we finally proposed the 7–16 metabolic pathways based on the deduced metabolites and relevant drug biotransformation knowledge.

OCT2 = biological target: T1, OCT2 (Homo sapiens, UniProt O15244)
T1 sequence (O15244 1-555): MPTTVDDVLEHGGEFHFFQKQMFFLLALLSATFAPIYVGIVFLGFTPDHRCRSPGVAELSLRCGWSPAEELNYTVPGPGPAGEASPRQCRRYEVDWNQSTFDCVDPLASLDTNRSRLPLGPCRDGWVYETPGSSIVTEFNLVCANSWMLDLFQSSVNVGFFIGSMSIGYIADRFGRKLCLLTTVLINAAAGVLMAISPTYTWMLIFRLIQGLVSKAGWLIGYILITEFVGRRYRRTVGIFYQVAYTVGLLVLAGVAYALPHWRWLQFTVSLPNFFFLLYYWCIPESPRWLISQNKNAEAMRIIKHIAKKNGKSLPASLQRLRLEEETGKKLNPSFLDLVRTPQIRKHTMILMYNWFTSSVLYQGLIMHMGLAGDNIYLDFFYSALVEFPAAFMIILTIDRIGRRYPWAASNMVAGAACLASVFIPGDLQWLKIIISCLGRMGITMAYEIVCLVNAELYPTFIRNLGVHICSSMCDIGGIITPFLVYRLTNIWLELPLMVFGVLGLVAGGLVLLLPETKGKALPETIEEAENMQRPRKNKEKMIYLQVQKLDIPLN

5-HT2A receptor = biological target: 5-HT2A receptor; parameters: method as in PMID 35279606; conditions: cited from earlier work
CYP2B6 = test: Metabolic phenotype by rhCYP isozymes, CYP2B6; assay type: in vitro ADME, human; conditions: 7–16 1 µM
Description: (§1) Based on the result of metabolite identification, two metabolites were selected as targets for metabolic phenotyping analysis. Seven CYP isozymes (CYP1A2, CYP2B6, CYP2C8, CYP2C9, CYP2C19, CYP2D6, and CYP3A4) were investigated using the rhCYP isozymes method. In brief, 7–16 (1 µΜ) was incubated with each rhCYP isozyme ([…]) in 100 mM sodium phosphate buffer (pH 7.4) containing 3 mM magnesium chloride. After 10 min of preincubation at 37 °C, the reactions were initiated by adding NADPH (1 mM) and then incubated at 37 °C in a shaking water bath for 0, 5, 15, and 30 min. The specific substrates of each rhCYP isozyme were incubated as the above method to confirm the activity of the incubation system. The samples were prepared in triplicates. The reactions were terminated by adding three times the volume of ice-cold acetonitrile (600 µL) and stored at −20 °C until analysis. After pre-treatment, the samples were determined by the LC–MS/MS (Shimadzu Exion-Triple Quad 4500) method. The relative contribution rate of each isozyme to the metabolism of 7–16 was evaluated in HLMs using the following formula: Contributionx% = Vx × Abundancex (pmol/mg protein)/Σ(Vi × Abundancei). Vx (µL/min/pmol) is the production rate of metabolites for each rhCYP isozyme.

CYP2C8 = test: Metabolic phenotype by rhCYP isozymes, CYP2C8; assay type: in vitro ADME, human; conditions: 7–16 1 µM
Description: as §1

hERG = tested on: hERG; parameters: method as in PMID 35279606; conditions: versus pimavanserin; cited from earlier work

For CN1CCC(N(Cc2ccc(F)cn2)C(=O)NCc2ccc(OCC(F)(F)F)cc2)CC1 [7–16, 3-(4-(2,2,2-trifluoroethoxy)benzyl)-1-((5-fluoropyridin-2-yl)methyl)-1-(1-methylpiperidin-4-yl) urea], the “recovery of radioactivity in bile, percent of dose” value ([1]; BDC rats, 0–72 h) was 18.4%, the “recovery of radioactivity in cage rinse/wash, percent of dose” value ([1]; BDC rats, 0–72 h) was 3.42% and the “recovery of radioactivity in feces, percent of dose” value ([1]; BDC rats, 0–72 h) was 20.2%. For the same compound, the “recovery of radioactivity in urine, percent of dose” value ([1]; BDC rats, 0–72 h) was 56.3%, the “total recovery of radioactivity, percent of dose” value ([1]; BDC rats, 0–72 h, oral 3 mg/100 µCi/kg, mean of both sexes) was 98.3% and the “recovery of radioactivity within the first 24 h, percent of dose” value ([1]; BDC rats, first 24 h post-administration) was 82.8%. For the same compound, the absorption rate ([1]; calculated from dose excreted in bile and urine of BDC rats, oral) was “at least 74.7%”, the “Relative Abundance, UV Area% Human” value [2] was 95.2% and the IC50 (OCT2) was 72.5 µM. For the same compound, the IC50 (5-HT2A receptor; previous study, read-out: 5-HT2A receptor antagonist activity IC50) was 0.00054 µM, the “fold higher 5-HT2A receptor antagonist activity than pimavanserin” value (5-HT2A receptor; versus pimavanserin) was 50 fold and the “relative contribution of CYP2B6 to metabolism” value (CYP2B6) was “little or no contribution”. The “relative contribution of CYP2C8 to metabolism” value (CYP2C8) was “little or no contribution” and the “fold weaker hERG inhibitory activity than pimavanserin” value (hERG) was 2 fold.
